In one assay the test system is PRL-omas. Kind of assay: cell viability of PRL-oma primary cultures, peptide treatment. The settings on record: 100 nM, time not specified in text (24-, 48- and/or 72-h), alamar-blue, n = 2–3. Format: cell-based, human. On the procedure: (§1) Pituitary adenoma specimens were dispersed into single cells by enzymatic and mechanical disruption and cultured onto tissue culture plates in serum containing medium, as previously described. Briefly, pituitary samples were resected by endoscopic transsphenoidal surgery and transferred to sterile cold (4°C) culture medium (S-MEM, Gibco, Madrid, Spain) supplemented with 0.1% BSA, 0.01% L-glutamine, 1% antibiotic-antimycotic solution, and 2.5% HEPES. Samples were minced under sterile conditions into 1–2 mm^3 pieces. Some pieces were stored at −80°C for posterior RNA isolation and, when possible, the remaining tissue samples were washed and incubated in 30 mL S-MEM medium supplemented 0.3% trypsin (Beckson, Dickinson and Company, Sparks, MD, USA) in a spinner flask (Bellco Glass, Vineland, NJ, USA) for 2 h of gentle shaking at 37°C and then, incubation was continued for another 5 min in presence of 1 mg of DNAse I (Roche, Mannheim, Germany). Dispersed cells were decanted by centrifugation and then, by repeated aspiration into a smoothtipped glass Pasteur pipette. […]
(§2) As previously reported, cell viability was estimated using alamar-blue reagent (10,000 cells/well-plate; Biosource International, Camarillo, CA, USA)[30][50][52]. […] Reduction of alamar-blue reagent was quantified exciting at 560 nm and reading at 590 nm using the FlexStation III system (Molecular Devices, Sunnyvale, CA, USA). […]
A general note: Alamar Blue is a resazurin reagent that responds to reducing activity.

The subject of assay [1] is GH-omas. Put plainly: GH secretion from GH-oma primary cultures. The settings on record: 100 nM; 4 h and 24 h; ELISA; % of vehicle; n = 3–7. The assay is classed as cell-based, human. On the procedure: (§3) Pituitary adenoma specimens were dispersed into single cells by enzymatic and mechanical disruption and cultured onto tissue culture plates in serum containing medium, as previously described. Briefly, pituitary samples were resected by endoscopic transsphenoidal surgery and transferred to sterile cold (4°C) culture medium (S-MEM, Gibco, Madrid, Spain) supplemented with 0.1% BSA, 0.01% L-glutamine, 1% antibiotic-antimycotic solution, and 2.5% HEPES. Samples were minced under sterile conditions into 1–2 mm^3 pieces. […]
(§4) To examine the effects of ghrelin system components (4- and/or 24 h-incubation) on pituitary hormone release from primary pituitary adenoma and/or AtT-20 cell line, 100,000–200,000 cell/well were used. As previously reported, hormone concentrations were measured in the culture media derived from human samples according to the pituitary adenoma type using commercial ELISAs [growth hormone, GH; adrenocorticotropin, ACTH; and prolactin, PRL (reference numbers: EIA-3552, EIA-3647 and EIA-1291, respectively; DRG, Mountainside, NJ, USA)] following the manufacturer's instructions. […]
On the technique in general: An ELISA detects its analyte on a solid surface through an enzyme-linked reagent.

Assay [2] concerns ACTH-omas. Also on record: method as in PMID 17280594. The following applies: previous data; cited from earlier work.
Assay [3] relates to GH-omas (tumoral pituitary cells). Kind of assay: free cytosolic calcium kinetics ([Ca^2+]i), GH-oma cells. The assay is classed as cell-based, human. On the procedure:
as §1
(§5) As previously reported, changes in [Ca^2+]i in single cells were measured using fura-2AM (50,000 cells/coverslip; Molecular Probes, Eugene, OR)[23][30]. […] Cells were examined for changes in [Ca^2+]i after the appropriate treatment (native ghrelin, In1-19 or In1-40) using a 40× objective with Immersion Oil Type NF (Nikon, Tokyo, Japan) while exposed to alternating 340–380 nm light beams, and the intensity of light emission at 505 nm was measured every 5 seconds using MetaFluor Software (Imaging Corp., West Chester, PA, USA). […] Changes in [Ca^2+]i in CHO-K1 cell line expressing recombinant GHSR1a or GHSR1b receptor were measured using Calcium 4 Explorer Kit (Molecular Devices, Sunnyvale, CA, USA). […] Fluorescent signals were then monitored using the FLIPR Tetra (Molecular Devices, Sunnyvale, CA, USA) during which cells were stimulated with compounds. Dose-response curves were analyzed using GraphPad Prism v5.04 (La Jolla, CA, USA).

Assay [4] concerns GH-omas. Put plainly: cell viability of GH-oma primary cultures, peptide treatment. The following applies: 100 nM, alamar-blue. The assay is classed as cell-based, human. On the procedure: Pituitary adenoma specimens were dispersed into single cells by enzymatic and mechanical disruption and cultured onto tissue culture plates in serum containing medium, as previously described. Briefly, pituitary samples were resected by endoscopic transsphenoidal surgery and transferred to sterile cold (4°C) culture medium (S-MEM, Gibco, Madrid, Spain) supplemented with 0.1% BSA, 0.01% L-glutamine, 1% antibiotic-antimycotic solution, and 2.5% HEPES. Samples were minced under sterile conditions into 1–2 mm^3 pieces. Some pieces were stored at −80°C for posterior RNA isolation and, when possible, the remaining tissue samples were washed and incubated in 30 mL S-MEM medium supplemented 0.3% trypsin (Beckson, Dickinson and Company, Sparks, MD, USA) in a spinner flask (Bellco Glass, Vineland, NJ, USA) for 2 h of gentle shaking at 37°C and then, incubation was continued for another 5 min in presence of 1 mg of DNAse I (Roche, Mannheim, Germany). Dispersed cells were decanted by centrifugation and then, by repeated aspiration into a smoothtipped glass Pasteur pipette. Cells suspensions were washed once in 4.5 g/L glucose containing DMEM medium (Gibco, Madrid, Spain) supplemented with 0.1% BSA, 0.01% L-glutamine, 1% antibiotic-antimycotic solution, and 2.5% HEPES. Cell number and viability was estimated by the Trypan blue exclusion test in Neubauer chamber, where viability was always 90–100%.
As previously reported, cell viability was estimated using alamar-blue reagent (10,000 cells/well-plate; Biosource International, Camarillo, CA, USA)[30][50][52]. Briefly, cells were serum-starved for 12–16 h before the measurements and treated with serum-free medium containing 10% alamar-blue for 3 h. Reduction of alamar-blue reagent was quantified exciting at 560 nm and reading at 590 nm using the FlexStation III system (Molecular Devices, Sunnyvale, CA, USA). Subsequently, media was replaced by serum-containing alamar-blue free medium and incubated for additional 24–72 h, measuring the alamar-blue reduction every 24 h. […]

For assay [5], the system named is PRL-omas (tumoral pituitary cells). Put plainly: free cytosolic calcium kinetics ([Ca^2+]i), PRL-oma cells. The assay is classed as cell-based, human. The following applies: fura-2AM. On the procedure: as §3
as §5, with “Dose-response curves were analyzed using GraphPad Prism v5.04 (La Jolla, CA, USA).” left out

The subject of assay [6] is ACTH-omas. Put plainly: ACTH secretion from ACTH-oma primary cultures. Format: cell-based, human. The settings on record: 100 nM; 24 h; ELISA; % of vehicle; n = 3–9. On the procedure:
as §3, §4

For assay [7], the system named is GH-omas. Kind of assay: apoptotic rate in GH-omas. The assay is classed as cell-based, human. The settings on record: 100 nM, 12–14 h, Annexin V/Propidium Iodide, flow cytometry, n = 3. On the procedure: as §1, with “pipette. Cells suspensions were washed once in 4.5 g/L glucose containing DMEM medium (Gibco, Madrid, Spain) supplemented with 0.1% BSA, 0.01% L-glutamine, 1% antibiotic-antimycotic solution, and 2.5% HEPES.” for “pipette.”
(In general: In flow cytometry, cells or beads pass a laser one at a time.)

Another assay deals with NFPAs. Put plainly: cell viability of NFPA primary cultures, peptide treatment. The assay is classed as cell-based, human. The following applies: 100 nM, alamar-blue, n = 3–15. On the procedure:
as §1, §2

The structures appear in SMILES notation. Entries after “also recorded” stand apart in the source; their conditions may differ.

Consider `CCCCCCCC(=O)OC[C@H](NC(=O)[C@H](CO)NC(=O)CN)C(=O)N[C@@H](Cc1ccccc1)C(=O)N[C@@H](CC(C)C)C(=O)N[C@@H](CO)C(=O)N1CCC[C@H]1C(=O)N[C@@H](CCC(=O)O)C(=O)N[C@@H](Cc1c[nH]cn1)C(=O)N[C@@H](CCC(N)=O)C(=O)N[C@@H](CCCNC(=N)N)C(=O)N[C@H](C(=O)N[C@@H](CCC(N)=O)C(=O)N[C@@H](CCC(N)=O)C(=O)N[C@@H](CCCNC(=N)N)C(=O)N[C@@H](CCCCN)C(=O)N[C@@H](CCC(=O)O)C(=O)N[C@@H](CO)C(=O)N[C@@H](CCCCN)C(=O)N[C@@H](CCCCN)C(=O)N1CCC[C@H]1C(=O)N1CCC[C@H]1C(=O)N[C@@H](C)C(=O)N[C@@H](CCCCN)C(=O)N[C@@H](CC(C)C)C(=O)N[C@@H](CCC(N)=O)C(=O)N1CCC[C@H]1C(=O)N[C@@H](CCCNC(=N)N)C(=O)O)C(C)C` [AG], for which the cell viability result was “significant increases” in the assay with PRL-omas; “significantly increased” in the assay with GH-omas [4] (48 h, n = 5–17); “significantly increased” in the assay with GH-omas [4] (72 h, n = 5–17); “modestly increased GH-oma cell viability” with GH-omas [4] (time not given); “reaching significant levels” in the assay on NFPAs (24 h); “modest but consistent increments in cell viability; also recorded: increased NFPA cells viability” in the assay with NFPAs (time not specified in text (24-, 48- and/or 72-h)). Besides, in the assay with GH-omas [1], the GH secretion entry was “similarly and significantly, increased GH secretion; also recorded: promoted GH secretion”. Besides, in the assay on ACTH-omas [2], the ACTH release entry was “able to elicit an effect on ACTH release”. Also, the entries for the “[Ca^2+]i response (in words)” value in assay [3] (fura-2AM) and in [5] were “doubling the [Ca^2+]i levels; also recorded: increased [Ca^2+]i” and “only a low proportion of these pituitary adenoma cells altered their [Ca^2+]i”, respectively. For the same compound, the “% cell resp.” value in assay [3] (proportion of responsive cells, fura-2AM single-cell imaging) came out at 74%. Also, the “# samples” value in [3] (responsive/tested samples, fura-2AM single-cell imaging, 1500 / 983 / 520 cells analyzed for AG / In1-19 / In1-40, peptides 100 nM (abstract)) is 27/27; in assay [5] (responsive/tested samples, 217 / 160 / 88 cells analyzed for AG / In1-19 / In1-40, peptides 100 nM (abstract)), 2/6. Also, the ACTH secretion result with ACTH-omas [6] was “significantly increased ACTH secretion”. For the same compound, in the assay with GH-omas [7], the apoptotic rate entry is reported as “did not alter apoptotic rate”.

The values are drawn from paper PMC4649711, “In1-ghrelin splicing variant is overexpressed in pituitary adenomas and increases their aggressive features” (Scientific Reports, 2015).
